From ChEMBL document CHEMBL3045169, “In vitro evaluation of the antibacterial and antifungal activity of some new pyrazolyl-quinazolin-4(3H)-one derivatives” (2012)

Key:
Assay type in all cases: functional
[1] = system: Escherichia coli; experiment: Antibacterial activity against Escherichia coli ATCC 25922 by agar cup-plate method relative to penicillin-G; parameters: concentration or dose not given beside the values
[2] = system: Staphylococcus aureus; experiment: Antibacterial activity against Staphylococcus aureus ATCC 9144 by agar cup-plate method relative to penicillin-G; parameters: concentration or dose not given beside the values
[3] = system: Aspergillus niger; experiment: Antifungal activity against Aspergillus niger ATCC 6275 by agar cup-plate method relative to fluconazole; parameters: concentration or dose not given beside the values
[4] = system: Staphylococcus aureus; experiment: Antibacterial activity against Staphylococcus aureus ATCC 9144 at 50 ug/ml by agar cup-plate method; settings: read-out: IZ
[5] = system: Pseudomonas aeruginosa; experiment: Antibacterial activity against Pseudomonas aeruginosa ATCC 9027 at 100 ug/ml by agar cup-plate method; settings: read-out: IZ
[6] = system: Escherichia coli; experiment: Antibacterial activity against Escherichia coli ATCC 25922 at 100 ug/ml by agar cup-plate method; settings: read-out: IZ
[7] = system: Aspergillus niger; experiment: Antifungal activity against Aspergillus niger ATCC 6275 at 10 ug/ml by agar cup-plate method; settings: read-out: IZ
[8] = system: Candida albicans; experiment: Antifungal activity against Candida albicans ATCC 10231 at 20 ug/ml by agar cup-plate method; settings: read-out: IZ
[9] = system: Pseudomonas aeruginosa; experiment: Antibacterial activity against Pseudomonas aeruginosa ATCC 9027 by agar cup-plate method relative to penicillin-G; parameters: concentration or dose not given beside the values
[10] = system: Bacillus subtilis; experiment: Antibacterial activity against Bacillus subtilis ATCC 6633 by agar cup plate method relative to penicillin-G; parameters: concentration or dose not given beside the values
[11] = system: Pseudomonas aeruginosa; experiment: Antibacterial activity against Pseudomonas aeruginosa ATCC 9027 at 50 ug/ml by agar cup-plate method; settings: read-out: IZ
[12] = system: Candida albicans; experiment: Antifungal activity against Candida albicans ATCC 10231 at 10 ug/ml by agar cup-plate method; settings: read-out: IZ
[13] = system: Aspergillus niger; experiment: Antifungal activity against Aspergillus niger ATCC 6275 at 20 ug/ml by agar cup-plate method; settings: read-out: IZ
[14] = system: Bacillus subtilis; experiment: Antibacterial activity against Bacillus subtilis ATCC 6633 at 100 ug/ml by agar cup plate method; settings: read-out: IZ
[15] = system: Staphylococcus aureus; experiment: Antibacterial activity against Staphylococcus aureus ATCC 9144 at 100 ug/ml by agar cup-plate method; settings: read-out: IZ
[16] = system: Bacillus subtilis; experiment: Antibacterial activity against Bacillus subtilis ATCC 6633 at 50 ug/ml by agar cup plate method; settings: read-out: IZ
[17] = system: Candida albicans; experiment: Antifungal activity against Candida albicans ATCC 10231 by agar cup-plate method relative to fluconazole; parameters: concentration or dose not given beside the values
[18] = system: Escherichia coli; experiment: Antibacterial activity against Escherichia coli ATCC 25922 at 50 ug/ml by agar cup-plate method; settings: read-out: IZ

Row | SMILES | Activity [1] | Activity [2] | Activity [3] | zone of inhibition at 50 µg/mL [4] | zone of inhibition at 100 µg/mL [5] | zone of inhibition at 100 µg/mL [6] | zone of inhibition at 10 µg/mL [7] | zone of inhibition at 20 µg/mL [8] | Activity [9] | Activity [10] | zone of inhibition at 50 µg/mL [11] | zone of inhibition at 10 µg/mL [12] | zone of inhibition at 20 µg/mL [13] | zone of inhibition at 100 µg/mL [14] | zone of inhibition at 100 µg/mL [15] | zone of inhibition at 50 µg/mL [16] | Activity [17] | zone of inhibition at 50 µg/mL [18]
1 | COc1ccccc1C1CC(Nn2c(Cc3ccccc3Nc3ccccc3)nc3ccc(I)cc3c2=O)=NN1 (stereo not drawn) | 52.45% | 36.21% | 41.3% | 7 mm | 17 mm | 16 mm | 0 mm | 6 mm | 63.19% | 38.97% | 13 mm | 0 mm | 6 mm | 10 mm | 9 mm | 8 mm | 45.11% | 13 mm
2 | CC1(C)S[C@@H]2[C@H](NC(=O)Cc3ccccc3)C(=O)N2[C@H]1C(=O)O [PENICILLIN G] |  |  |  | 25 mm | 28 mm | 31 mm |  |  |  |  | 23 mm |  |  | 27 mm | 30 mm | 21 mm |  | 25 mm
3 | O=c1c2cc(I)ccc2nc(Cc2ccccc2Nc2ccccc2)n1NC1=NNC(c2ccc(Cl)cc2)C1 (stereo not drawn) | 40.81% | 44.39% | 58.12% | 0 mm | 7 mm | 6 mm | 15 mm | 18 mm | 48.61% | 41.49% | 0 mm | 16 mm | 17 mm | 6 mm | 6 mm | 0 mm | 67.26% | 0 mm
4 | O=c1c2cc(I)ccc2nc(Cc2ccccc2Nc2ccccc2)n1NC1=NNC(c2cccc(Cl)c2)C1 (stereo not drawn) | 40.81% | 44.39% | 53.99% | 0 mm | 6 mm | 6 mm | 12 mm | 16 mm | 44.72% | 41.49% | 0 mm | 14 mm | 15 mm | 6 mm | 6 mm | 0 mm | 59.53% | 0 mm
5 | O=c1c2cc(I)ccc2nc(Cc2ccccc2Nc2ccccc2)n1NC1=NNC(c2cccc([N+](=O)[O-])c2)C1 (stereo not drawn) | 62.3% | 52.83% | 51.18% | 12 mm | 19 mm | 19 mm | 11 mm | 15 mm | 67.47% | 52.61% | 16 mm | 13 mm | 14 mm | 14 mm | 15 mm | 11 mm | 56.01% | 15 mm
6 | O=c1c2cc(I)ccc2nc(Cc2ccccc2Nc2ccccc2)n1NC1=NNC(c2cccc(O)c2)C1 (stereo not drawn) | 34.11% | 42.34% | 45.04% | 10 mm | 10 mm | 9 mm | 0 mm | 7 mm | 39.56% | 47.05% | 8 mm | 0 mm | 7 mm | 13 mm | 12 mm | 11 mm | 49.07% | 7 mm
7 | COc1ccc(C2CC(Nn3c(Cc4ccccc4Nc4ccccc4)nc4ccc(I)cc4c3=O)=NN2)cc1 (stereo not drawn) | 57.71% | 38.15% | 45.04% | 8 mm | 19 mm | 18 mm | 0 mm | 7 mm | 68.97% | 41.49% | 15 mm | 0 mm | 7 mm | 11 mm | 10 mm | 9 mm | 49.07% | 15 mm
8 | O=c1c2cc(I)ccc2nc(Cc2ccccc2Nc2ccccc2)n1NC1=NNC(c2ccccc2[N+](=O)[O-])C1 (stereo not drawn) | 47.67% | 55.29% | 58.12% | 13 mm | 15 mm | 14 mm | 15 mm | 18 mm | 55.43% | 63.61% | 12 mm | 15 mm | 17 mm | 17 mm | 16 mm | 13 mm | 68.81% | 11 mm
9 | O=c1c2cc(I)ccc2nc(Cc2ccccc2Nc2ccccc2)n1NC1=NNC(c2ccccc2)C1 (stereo not drawn) | 40.81% | 70.87% | 58.12% | 17 mm | 7 mm | 6 mm | 15 mm | 18 mm | 48.61% | 81.79% | 0 mm | 15 mm | 17 mm | 22 mm | 21 mm | 18 mm | 68.81% | 0 mm
10 | O=c1c2cc(I)ccc2nc(Cc2ccccc2Nc2ccccc2)n1NC1=NNC(c2ccc(O)cc2)C1 (stereo not drawn) | 32.33% | 38.15% | 51.18% | 8 mm | 9 mm | 8 mm | 11 mm | 15 mm | 37.4% | 41.49% | 7 mm | 13 mm | 14 mm | 11 mm | 10 mm | 9 mm | 56.01% | 6 mm
11 | CN(C)c1ccc(C2CC(Nn3c(Cc4ccccc4Nc4ccccc4)nc4ccc(I)cc4c3=O)=NN2)cc1 (stereo not drawn) | 40.81% | 48.23% | 60.1% | 0 mm | 7 mm | 6 mm | 14 mm | 18 mm | 48.61% | 45.27% | 0 mm | 15 mm | 17 mm | 7 mm | 7 mm | 0 mm | 68.81% | 0 mm
12 | O=c1c2cc(I)ccc2nc(Cc2ccccc2Nc2ccccc2)n1NC1=NNC(c2ccccc2Cl)C1 (stereo not drawn) | 44.45% | 44.39% | 66.9% | 0 mm | 7 mm | 7 mm | 16 mm | 20 mm | 48.61% | 45.27% | 0 mm | 17 mm | 19 mm | 7 mm | 6 mm | 0 mm | 76.62% | 0 mm
13 | OC(Cn1cncn1)(Cn1cncn1)c1ccc(F)cc1F [FLUCONAZOLE] |  |  |  |  |  |  | 22 mm | 26 mm |  |  |  | 21 mm | 28 mm |  |  |  |  | 
14 | O=c1c2cc(I)ccc2nc(Cc2ccccc2Nc2ccccc2)n1NC1=NNC(c2ccccc2O)C1 (stereo not drawn) | 34.11% | 38.15% | 38.11% | 8 mm | 10 mm | 9 mm | 8 mm | 12 mm | 39.56% | 41.49% | 8 mm | 9 mm | 10 mm | 11 mm | 10 mm | 9 mm | 49.95% | 7 mm
